Laboratory results: PubChem BioAssay (NCI)
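Compound exposure: 48 hours, 5 concentrations, 96-well plates. GI50: concentration for 50% inhibition of growth. TGI: total growth inhibition.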

Legend:
Assay in all cases: inhibition of tumour cell growth, NCI panel, 48 h
[1] = tested on: RXF 393 renal
[2] = tested on: M14 melanoma
[3] = tested on: SN12C renal
[4] = tested on: MDA-MB-435
[5] = tested on: A498 renal
[6] = tested on: MDA-MB-231 breast
[7] = tested on: OVCAR-3 ovarian
[8] = tested on: NCI-H460 lung
[9] = tested on: K-562 leukemia
[10] = tested on: U251 CNS
[11] = tested on: LOX IMVI melanoma
[12] = tested on: HT29 colon
[13] = tested on: IGROV1 ovarian
[14] = tested on: NCI-H23 lung
[15] = tested on: HOP-62 NSCLC
[16] = tested on: OVCAR-8 ovarian
[17] = tested on: SK-MEL-2 melanoma
[18] = tested on: SNB-19 CNS

| Structure (SMILES) | TGI [1] [µM] | TGI [2] [µM] | TGI [3] [µM] | TGI [4] [µM] | TGI [5] [µM] | TGI [6] [µM] | TGI [7] [µM] | TGI [8] [µM] | TGI [9] [µM] | TGI [10] [µM] | TGI [11] [µM] | TGI [12] [µM] | TGI [13] [µM] | TGI [14] [µM] | TGI [15] [µM] | TGI [16] [µM] | TGI [17] [µM] | TGI [18] [µM] | GI50 [5] [nM] | GI50 [11] [µM] |
| --- | --- | --- | --- | --- | --- | --- | --- | --- | --- | --- | --- | --- | --- | --- | --- | --- | --- | --- | --- | --- |
| Cc1ccc(C(=O)Nc2ccc(CP(=O)(O)O)cc2CP(=O)(O)O)cc1NC(=O)c1cccc(NC(=O)Nc2cccc(C(=O)Nc3cc(C(=O)Nc4ccc(CP(=O)(O)O)cc4CP(=O)(O)O)ccc3C)c2)c1 | > 100 | > 100 | > 100 | > 100 | > 100 | > 100 | > 100 | > 100 | > 100 | > 100 | > 100 | > 100 | > 100 | > 100 | > 100 | > 100 | > 100 |  |  |  |
| C=CCc1ccccc1CC1(OCC)OC(=O)c2ccccc21 (stereo not given) | > 100 | > 100 | > 100 | 96.9 | > 100 | > 100 | > 100 | > 100 | > 100 | > 100 |  | > 100 | > 100 | > 100 | > 100 | > 100 | > 100 | > 100 |  |  |
| CC(C)=c1sc(=C(C)C)c2c1=NC(C)(C)N=2 | > 100 | > 100 | > 100 | > 100 | > 100 | > 100 | > 100 | > 100 |  | > 100 | > 100 | > 100 | > 100 | > 100 | > 100 | > 100 | > 100 | > 100 |  |  |
| CCN(CC)c1c(-c2c(N(CC)CC)c(OC(C)=O)c3sccn3c2=O)c(=O)n2ccsc2c1OC(C)=O |  | > 100 | > 100 | > 100 | > 100 | 57 | > 100 | > 100 | > 100 | > 100 | > 100 | > 100 | > 100 | > 100 | 46.9 | > 100 | > 100 | > 100 |  |  |
| CC(=O)c1cccc(Nc2nc3ccc(Cl)cc3c3[nH]c4ccccc4c23)c1 |  | > 100 | > 90.8 | > 100 | 7.26 | 63.8 | 8.16 | 6.41 | > 56.7 | 14.7 | > 100 | 48.5 | > 48.6 | > 73.8 | 15.4 | 32.7 | 30.8 | 48.6 | 2150 | 5.46 |
| Cn1c(Cl)cn2c3nc4ccccc4nc3c(=O)c(C#N)c12 | > 100 | > 100 | > 100 | > 100 | 98.8 | > 100 | > 100 | > 100 | > 100 | > 100 | > 100 | > 100 | > 100 | > 100 |  | > 100 | > 100 | > 100 |  |  |
| NC1CC(Cl)c2c(Cl)sc(Cl)c21 (stereo not given) | > 100 | > 100 | > 100 | > 100 | > 100 | > 100 | > 100 | > 100 | > 100 | > 100 | > 100 | > 100 | > 100 | > 100 | > 100 | > 100 | > 100 |  |  |  |
| Nc1[nH]c(=S)c2c(N)n[nH]c2c1C(=O)Nc1ccccc1 | > 100 | > 100 | > 100 | > 100 | > 100 | > 100 | > 100 | > 100 | > 100 | > 100 | > 100 | > 100 | > 100 | > 100 |  | > 100 | > 100 | > 100 |  |  |
| Oc1cc(-c2ccc(Cl)cc2)cn2c1nc1ccccc12 | > 100 | > 100 | > 100 | > 100 | > 100 | > 100 | > 100 | > 100 | > 100 | > 100 | > 100 | > 100 | > 100 | > 100 | > 100 | > 100 |  | > 100 |  |  |
| COc1cccc(-c2nc3ccccc3c(=O)[nH]2)c1OC | > 100 | > 100 | > 100 | > 100 | > 100 | > 100 | > 100 | > 100 |  | > 100 |  | > 100 | > 100 | > 100 | > 100 | > 100 | > 100 | > 100 |  |  |
| COC(=O)c1c2c(cc3c1CC1(Cc4ccc(C(C)=O)cc4C1)C3)CCC2 (stereo not given) | 80 |  | > 100 | 50.8 | > 100 | > 100 | > 100 | > 100 | > 100 | > 100 | 60.2 | 89 | > 100 | > 100 | > 100 | > 100 |  |  |  |  |
| Nc1ncnc2c1ncn2C1OC(CO)C(O)C(O)C1O (stereo not given) |  | > 100 | > 100 | > 100 | > 100 | > 100 | > 100 | > 100 | > 100 | > 100 | > 100 | > 100 | > 100 | > 100 | > 100 | > 100 | > 100 | > 100 |  |  |
| O=c1n(-c2ccccc2)c(=O)n2n1C1Cc3ccccc3C12 (stereo not given) |  | > 100 | > 100 | > 100 | > 100 | > 100 | > 100 | > 100 | > 100 | > 100 | > 100 | > 100 | > 100 | > 100 | > 100 | > 100 | > 100 | > 100 |  |  |
